Data set [1] concerns Granny Smith and Red Delicious apples. Kind of data set: Inspection for phytotoxicity on the fruit the morning after DPA aerosol application (Example 1). The following applies: 15 grams per ton DPA aerosol. The class given is in vivo. The source says: DPA was applied to Granny Smith and Red Delicious apples at a research facility. Solid, technical grade (99.5%) DPA was melted and applied to the apples in a storage facility as an aerosol using a commercial thermal fogger equipment, provided by Custom Chemical of Warden Wash., as described above. The apples were loaded into 20 bins, of 900 pounds each, of each variety and stacked in a three by three arrangement. The bins were stacked: five high in all of the back rows, in a 5-4-5 high arrangement in the center row and in a 4-3-4 arrangement in the front row. DPA was applied at a rate of 15 grams per ton. This represents a 50% excess to account for any loss in void spaces. The thermal fogging equipment was placed in the hallway of the storage facility with two 10 foot lengths of flex pipe attached to a porthole in the door of the sealed storage room. Fumigating started and reached optimum saturation in 15 minutes. The porthole was then sealed and the room was left alone for 16 hours. Application of the aerosol DPA began with the storage facility fans off. The fans were turned on after 10 minutes of aerosol DPA application and run at ambient temperatures for 12-16 hours. The morning after application the room was unsealed the apples, bins, storage walls and fan blades were checked for anomalies such as DAP sublimation as crystals and possible phytotoxicity on the fruit.

For data set [2] the test system is unchanged. Kind of data set: Scald and decay observation of DPA-fogged apples in cold air storage (Example 1). It counts as in vivo. An excerpt: DPA was applied to Granny Smith and Red Delicious apples at a research facility. Solid, technical grade (99.5%) DPA was melted and applied to the apples in a storage facility as an aerosol using a commercial thermal fogger equipment, provided by Custom Chemical of Warden Wash., as described above. The apples were loaded into 20 bins, of 900 pounds each, of each variety and stacked in a three by three arrangement. The bins were stacked: five high in all of the back rows, in a 5-4-5 high arrangement in the center row and in a 4-3-4 arrangement in the front row. DPA was applied at a rate of 15 grams per ton. This represents a 50% excess to account for any loss in void spaces. The thermal fogging equipment was placed in the hallway of the storage facility with two 10 foot lengths of flex pipe attached to a porthole in the door of the sealed storage room. Fumigating started and reached optimum saturation in 15 minutes. The porthole was then sealed and the room was left alone for 16 hours. Application of the aerosol DPA began with the storage facility fans off. The fans were turned on after 10 minutes of aerosol DPA application and run at ambient temperatures for 12-16 hours. The morning after application the room was unsealed the apples, bins, storage walls and fan blades were checked for anomalies such as DAP sublimation as crystals and possible phytotoxicity on the fruit. […] After the initial inspection the bins were arranged outside of the building so samples could be taken. Each bin was marked as to its location in the room and samples were marked with those same ID codes. Samples were taken from the top of each bin and also by digging into the center of the bin. Each bin was effectively sampled two times. These samples were tested for DPA residual by gas chromatography. The bins were than transferred to a cold air storage facility and observed for five months. Periodically samples were collected for DPA residue, scald and decay analysis as describe below. After 6 weeks additional samples were taken and tested for DPA residual by gas chromatography. These samples were taken like the first set, eight apples from the top of the bin and then digging into the center for eight apples. After two months in common storage four bins were set out for evaluation, two Granny Smith and two Red Delicious. […] The next samples were taken one month later. […] One month later samples were taken in the same fashion as before, top and middle of the bins. Because a fungicide was not used, penicillium rot was showing in about 8% of the Red Delicious samples. The Granny Smith samples were starting to show some decay, roughly 1⁄2 percent. […] The next to last sample was taken about 6 weeks later. Scald was not a problem. […] The positive impact of the treatment was especially evident in the Granny Smith apples which are more susceptible to scald. The decay incidences were unchanged. As stated in the earlier, there was generally a slightly higher decay rate in Red Delicious compared to prior art drench type applications, which typically use one or a combination of two fungicides. The decay in this test was attributed to the lack of fungicide use in this trial.

Structures are written as SMILES.

As for `c1ccc(Nc2ccccc2)cc1` [DPA, diphenylamine], the “possible phytotoxicity on the fruit” value in data set [1] is given as “None was found”. The Scald entry is on record as “No Scald was apparent in any bin” in data set [2] (after two months in common storage, two Granny Smith and two Red Delicious bins); “no additional scald” in data set [2] (final assessment, approximately two weeks after the next to last sample); “no scald found in any bin” in data set [2] (next to last sample, about 6 weeks later, all bins); “Scald was not showing in either variety” in data set [2] (one month after the two-month evaluation, both varieties); “Scald was not apparent in either variety” in data set [2] (two months after the two-month evaluation, both varieties).

Values taken from patent publication US20080103212A1, “Treatment of fruit in storage facility with solid derived diphenylamine anti scald agent” (priority 2006, published 2008).
